The EC50 is the concentration giving half of the maximal effect. One may read the CC50 as the concentration that lowers cell viability or growth by half. A lower CC50 goes with greater toxicity to the cells.

The structures appear in SMILES notation. Where two headings read alike, the source gives them in different places.

Our source for the EC50 and CC50 values is patent US9187496B2 (priority 2009, dated 2015).

Series [1] concerns Huh-7 cells containing HCV Con1 subgenomic replicon (GS4.1 cells). The series is described as follows: HCV replicon assay (NS5A ELISA). Conditions: Hepatitis C virus, Huh-7; GS4.1 cells, 72 hrs, NS5A ELISA; read-out: EC50. Type of series: cell-based. In a few lines:
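GS4.1 cells dosed 3 h after seeding with ten 2-fold dilutions from 75 μM, or single 15 μM, in 0.5% DMSO for 72 h at 37° C; NS5A measured by ELISA (A-236 antibody, OPD, A492). EC50 from four-parameter sigmoidal fit of % inhibition.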
(In general: In antiviral work, replicon cells carry a viral genome segment that copies itself.)

Series [2] is described as follows: Cytotoxicity evaluation in GS4.1 cells (Cell Titer 96 AQueous One). The series is classed as cell-based, human. Conditions: human, cellular viability. On the procedure: For cytotoxicity evaluation, GS4.1 cells were treated with compounds as described above and cellular viability was monitored using the Cell Titer 96 AQueous One Solution Cell Proliferation Assay (Promega). CC50 values were determined from the % cytotoxicity versus concentration data with Tecan Magellan software as described above.

The test system of series [3] is HCV genotype 1b Conl strain subgenomic luciferase replicon (Zluc). The series is described as follows: Luciferase replicon assay, genotype 1b. The following applies: read-out: EC50 1b. The series is classed as cell-based. The gist of the method: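 Huh-7 cells carrying the genotype 1b Con1 subgenomic luciferase–neo replicon (Zluc), seeded at 7.5×10^3 cells/well, got ten 5-fold compound dilutions 3 h after plating and were incubated 72 h at 37 °C. Replication was read as ONE-Glo luciferase luminescence. EC50 came from dose-response curve fits.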

In series [4] the test system is HCV genotype 2a-specific NS5A gene within the 1b-replicon. Put plainly: Luciferase replicon assay, NS5A-intergenotypic stable cell line genotype 2a. The series is classed as cell-based. The following applies: read-out: EC50 2a.
The subject of series [5] is HCV genotype 3a-specific NS5A gene within the 1b-replicon. The series is described as follows: Luciferase replicon assay, NS5A-intergenotypic stable cell line genotype 3a. Conditions: read-out: EC50 3a. The series is classed as cell-based.
In series [6] the test system is HCV genotype 4a-specific NS5A gene within the 1b-replicon. The series is described as follows: Luciferase replicon assay, NS5A-intergenotypic stable cell line genotype 4a. The following applies: read-out: EC50 4a. Type of series: cell-based.
For series [7], the system named is HCV genotype 1a H77 strain (H1a-luc replicon / 1a-H77NS5a intergenotypic replicon). Put plainly: Luciferase replicon assay, genotype 1a. Type of series: cell-based. The following applies: Hepatitis C virus, read-out: EC50 1a, genotype 1a. An excerpt:
To generate the 1a-H77NS5a intergenotypic plasmid, dual cut sites were inserted into the ZS11-luciferase genotype 1b backbone that would bracket the NS5a region almost in its entirety. Using PCR and 1a-H77 specific primers also containing the corresponding restriction enzyme sites, the NS5a gene was amplified from the 1a-H77 replicon. The ZS11-luciferase genotype 1b backbone and the genotype 1a NS5a PCR products were restriction enzyme digested and then ligated using standard molecular cloning techniques. The newly constructed plasmid contains the genotype 1a-specific NS5a gene where as the backbone remains 1b as described herein.
These new intergenotypic plasmids were used to establish stable cell lines. RNA was generated from the NS5A intergenotypic plasmids and used in conjunction with a lipofectin reagent to transfect a cured Huh7 cell line. Transfected cells were selected for with G418. After selection has occurred the stable cell lines were propagated, tested for luciferase activity, and RT-PCR with genotype specific primers (either 1a, 2a, 3a, or 4a). Stable cell lines containing the intergenotypic replicon were then fully sequenced and analysed for proper expression of NS3, NS5A and NS5B proteins.
Drug titration analysis was performed using the luciferase replicon assay described herein.
The HCV luciferase replicon assay measures the ability of a test compound to inhibit HCV replication in cell culture after 3 days of treatment in a human hepatoma cell line (Huh-7) bearing a HCV replicon containing a luciferase-neomycin phosphotransferase fusion gene. The inhibition of HCV replication was measured by quantification of luciferase protein expression. Briefly, Huh-7 cells containing either the HCV genotype 1a H77 strain or genotype 1b Conl strain subgenomic luciferase replicon (H1a-luc or Zluc, respectively) were grown in DMEM containing glucose, L-glutamine and sodium pyruvate, 10% fetal bovine serum (FBS), 100 IU/mL penicillin, 100 μg/mL streptomycin, 2 mM GlutaMAX, non-essential amino acids and 0.25 (H1a-luc) or 0.5 (Zluc) mg/mL G418. GlutaMAX was obtained from Invitrogen, Corp.; all other media reagents were obtained from Mediatech, Inc. For dose-response testing, the cells were seeded in 96-well plates at 1×10^4 (H1a-luc) or 7.5×10^3 (Zluc) cells/well in a volume of 50 μL, and incubated at 37° C./5% CO2. Three hours after plating, 50 μL of ten 5-fold serial dilutions of compound were added, and cell cultures were incubated at 37° C./5% CO2 for 72 hours. In all cases, Huh-7 cells lacking the HCV replicon served as negative control. To assess luciferase expression, the media/compound was removed from the plates and ONE-glo Luciferase assay reagent (Promega) was added to each well. The assay plates were shaken for 3 minutes at room temperature and luciferase activity for each well was measured with a 1 sec read time on the Victor^3V multilabel counter using a 700 nm cut-off filter (Perkin Elmer). EC50 values were calculated from dose response curves from the resulting best-fit equations determined by Microsoft Excel and XLfit 4.1 software.

Series [8] is described as follows: Cytotoxicity evaluation in luciferase replicon cells (Cell Titer 96 AQueous One). The following applies: human; Table 1B, cellular viability. The series is classed as cell-based, human. The protocol:
(§1) For cytotoxicity evaluation, H1a-luc or Zluc cells were treated with compounds as described above and cellular viability was monitored using the Cell Titer 96 AQueous One Solution Cell Proliferation Assay (Promega). Plates were then read at 490 nm in a Victor^3V 1420 multilabel counter (Perkin Elmer) and CC50 concentrations were determined using Microsoft Excel and XLfit 4.1 software.

The next series relates to H1a-luc or Zluc cells. The series is described as above. Conditions: Table 1B, cellular viability. The series is classed as cell-based, human. The protocol: as §1

In the case of `COC(=O)N[C@H](C(=O)N1CCC[C@H]1c1ncc(-c2ccc(-c3csc4c(-c5cnc([C@@H]6CCCN6C(=O)[C@@H](NC(=O)OC)C(C)C)[nH]5)csc34)cc2)[nH]1)C(C)C` [Compound A15, [(S)-1-((S)-2-{4-[4-(6-{2-[(S)-1-((S)-2-methoxycarbonylamino-3-methyl-butyryl)-pyrrolidin-2-yl]-3H-imidazol-4-yl}-thieno[3,2-b]thiophen-3-yl)-phenyl]-1H-imidazol-2-yl}-pyrrolidine-1-carbonyl)-2-methyl-propyl]-carbamic acid methyl ester], the EC50 in [1] was less than 1 nM; in [3] (Hepatitis C virus, 72 h), less than 0.1 nM; in [4] (Hepatitis C virus), less than 0.1 nM; in [5] (Hepatitis C virus), 0.1 to 1 nM; in series [6] (Hepatitis C virus) it was less than 0.1 nM; in series [7] it was less than 0.1 nM. The compound further gave a 50% cytotoxic concentration (CC50) in series [2] of 10000 to 75000 nM. Besides, the CC50 at 72 h in [8] fell in the range of 10000 to 75000 nM.
Consider `COC(=O)N[C@H](C(=O)N1CCC[C@H]1c1ncc(-c2ccc(-c3csc4c(-c5ccc(-c6cnc([C@@H]7CCCN7C(=O)[C@@H](NC(=O)OC)C(C)C)[nH]6)cc5)csc34)cc2)[nH]1)C(C)C` [Compound A86, ((S)-1-((S)-2-(5-{4-[6-{4-{2-[(S)-1-((S)-2-methoxycarbonylamino-3-methyl-butyryl)-pyrrolidin-2-yl]-3H-imidazol-4-yl}-phenyl)-thieno[3,2-b]thiophen-3-yl]-phenyl}-1H-imidazol-2-yl)-pyrrolidine-1-carbonyl]-2-methyl-propyl}-carbamic acid methyl ester], for which the EC50 was less than 1 nM in series [1]; less than 0.1 nM in [3] (Hepatitis C virus, 72 h); 1 to 10 nM in [4] (Hepatitis C virus); 1 to 10 nM in series [5] (Hepatitis C virus); less than 0.1 nM in [6] (Hepatitis C virus); 0.1 to 1 nM in [7]. Besides, in series [2], the CC50 is 10000 to 75000 nM. The same compound came in with a cytotoxic concentration (CC50) at 72 h in series [8] of 10000 to 75000 nM.
Turning to `COC(=O)N[C@H](C(=O)N1CCC[C@H]1c1nc2ccc(-c3csc4c(C#Cc5cnc([C@@H]6CCCN6C(=O)[C@H](NC(=O)OC)c6ccccc6)[nH]5)csc34)cc2[nH]1)C(C)C` [Compound A206], the EC50 in series [3] (genotype 1b, luciferase replicon, 72 hours) is less than 0.1 nM; in [4] (genotype 2a), less than 0.1 nM; in [5] (genotype 3a) it was less than 0.1 nM; in series [6] (genotype 4a), less than 0.1 nM. The cytotoxic concentration (CC50) in the series on H1a-luc or Zluc cells was greater than 75000 nM.
